Measurements published in the supplement of paper PMC11821682.

Tests used:
Danio rerio embryo = assay: BMC10 any morphological effect or mortality at 120 hpf; higher = less toxic
Procedure: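 ZBEscreen: dechorionated Tropical 5D zebrafish embryos were exposed from 4 hpf in 96-well plates (1% DMSO, 28 °C). All compounds were first tested at 100 µM; hits were retested at 0.005-100 µM. Morphology and mortality were scored at 120 hpf and fitted as BMC10 (3-parameter log-logistic, extra risk). The embryonic photomotor response at 24 hpf and the larval photomotor response at 120 hpf are given as lowest effect levels (K-S test, p<0.01). NA = not significant up to 100 µM; NT = not tested.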

HL-60 = assay: Cell Health Index (toxicity pseudo-probability over dose series) (index 0-1); higher = more cytotoxic / cell stress;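 further: HL-60 cells exposed 4 h at 37 °C to ten threefold dilutions spanning 5 nM to 100 µM, multiparametric flow cytometry features scored by machine-learning classification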

| SMILES | BMC10 any morphological effect or mortality (Danio rerio embryo) | Cell Health Index (HL-60) |
| --- | --- | --- |
| COC(=O)N[C@H](C(=O)N[C@@H](Cc1ccccc1)[C@@H](O)CN(Cc1ccc(-c2ccccn2)cc1)NC(=O)[C@@H](NC(=O)OC)C(C)(C)C)C(C)(C)C [Atazanavir] | > 100 µM | 0.374 |
| OCC1=C[C@@H](O)[C@@H]2C=CO[C@@H](O[C@@H]3O[C@H](CO)[C@@H](O)[C@H](O)[C@H]3O)[C@H]12 [Aucubin] | > 100 µM | 0.304 |
| O=C(O)[C@H]1O[C@@H](Oc2cc3oc(-c4ccccc4)cc(=O)c3c(O)c2O)[C@H](O)[C@@H](O)[C@@H]1O [Baicalin] | > 100 µM | 0.718 |
| COc1c(O)cc2c(c1O)[C@@H]1O[C@H](CO)[C@@H](O)[C@H](O)[C@H]1OC2=O [Bergenin] | > 100 µM | 0.214 |
| C=C(C)[C@@H]1CC[C@]2(C=O)CC[C@]3(C)[C@H](CC[C@@H]4[C@@]5(C)CC[C@H](O)C(C)(C)[C@@H]5CC[C@]43C)[C@@H]12 [Betulinic aldehyde] | > 100 µM | 0.515 |
| O=C(NCc1c(F)cc(F)cc1F)c1cn2c(c(O)c1=O)C(=O)N1[C@H]3CC[C@H](C3)O[C@@H]1C2 [Bictegravir] | > 100 µM | 0.35 |
| CC[C@H](NC(=O)[C@H](C)NC)C(=O)N1C[C@@H](O)C[C@H]1Cc1c(-c2[nH]c3cc(F)ccc3c2C[C@@H]2C[C@H](O)CN2C(=O)[C@H](CC)NC(=O)[C@H](C)NC)[nH]c2cc(F)ccc12 [Birinapant] | > 100 µM | 0.282 |
| CC(C)(C)NC(=O)N[C@H](C(=O)N1C[C@H]2[C@@H]([C@H]1C(=O)NC(CC1CCC1)C(=O)C(N)=O)C2(C)C)C(C)(C)C (stereo partly drawn) [Boceprevir] | > 100 µM | 0.228 |
| O=c1[nH]c(=O)n([C@H]2C[C@H](O)[C@@H](CO)O2)cc1/C=C/Br [Brivudine] | > 100 µM | 0.157 |
| CCCNC(=O)[C@H]1O[C@@H]1C(=O)N[C@H](C(=O)N1CCC[C@H]1C(=O)O)[C@@H](C)CC [CA-074] | > 100 µM | 0.179 |
| CN(C)C(=O)COC(=O)Cc1ccc(OC(=O)c2ccc(NC(=N)N)cc2)cc1.CS(=O)(=O)O [Camostat] | > 100 µM | 0.162 |
| CC(C)C[C@H](NC(=O)[C@H](CCc1ccccc1)NC(=O)CN1CCOCC1)C(=O)N[C@@H](Cc1ccccc1)C(=O)N[C@@H](CC(C)C)C(=O)[C@@]1(C)CO1 [Carfilzomib] | > 100 µM | 0.42 |
| O=C(O)C[C@@H]1C(=O)O[C@H]2[C@@H]3OC(=O)c4cc(O)c(O)c(O)c4-c4c(cc(O)c(O)c4O)C(=O)OC[C@H]2O[C@@H](OC(=O)c2cc(O)c(O)c(O)c2)[C@@H]3OC(=O)c2cc(O)c(O)c3c2[C@H]1[C@H](O)C(=O)O3 [Chebulagic acid] | > 100 µM | 0.874 |
| O=C(/C=C/c1ccc(O)c(O)c1)O[C@@H](C(=O)O)[C@@H](OC(=O)/C=C/c1ccc(O)c(O)c1)C(=O)O [Chicoric acid] | > 100 µM | 0.468 |
| O=C(/C=C/c1ccc(O)c(O)c1)O[C@@H]1C[C@](O)(C(=O)O)C[C@@H](O)[C@H]1O [Chlorogenic acid] | > 100 µM | 0.232 |
| CCN(CC)CCCC(C)Nc1ccnc2cc(Cl)ccc12.O=P(O)(O)O.O=P(O)(O)O (stereo not drawn) [Chloroquine] | > 100 µM | 0.236 |
| Cc1cc(O)c2c(c1)C(=O)c1cccc(O)c1C2=O [Chrysophanol] | > 100 µM | 0.288 |

| SMILES | BMC10 any morphological effect or mortality (Danio rerio embryo) | Cell Health Index (HL-60) |
| --- | --- | --- |
| CC(C)C[C@H](NC(=O)[C@@H](NC(=O)N[C@@H](Cc1ccccc1)C(=O)O)C1CCNC(=N)N1)C(=O)N[C@H](C=O)Cc1ccccc1 (stereo partly drawn) [Chymostatin] | > 100 µM | 0.19 |
| Nc1ccn(C[C@@H](CO)OCP(=O)(O)O)c(=O)n1 [Cidofovir] | > 100 µM | 0.144 |
| [Cl-].c1c2c(cc3c1OCO3)-c1cc3ccc4c(c3c[n+]1CC2)OCO4 [Coptisine] | > 100 µM | 0.777 |
| O=C(OC1OC2COC(=O)c3cc(O)c(O)c(O)c3-c3c(cc(O)c(O)c3O)C(=O)OC(C2O)C1O)c1cc(O)c(O)c(O)c1 (stereo not drawn) [Corilagin] | > 100 µM | 0.889 |
| Nc1ccn([C@@H]2O[C@H](CO)[C@@H](O)[C@@H]2O)c(=O)n1 [Cytarabine] | > 100 µM | 0.203 |
| CO[C@H]1[C@H](O)[C@@H](O)[C@@H](O)[C@H](O)[C@@H]1O [D-Pinitol] | > 100 µM | 0.174 |
| CCCCCCOC(=O)NC(=N)c1ccc(NCc2nc3cc(C(=O)N(CCC(=O)OCC)c4ccccn4)ccc3n2C)cc1 [Dabigatran etexilate] | > 100 µM | 0.832 |
| Cn1c(CNc2ccc(C(=N)N)cc2)nc2cc(C(=O)N(CCC(=O)O)c3ccccn3)ccc21 [Dabigatran] | > 100 µM | 0.137 |
| COC(=O)N[C@H](C(=O)N1CCC[C@H]1c1ncc(-c2ccc(-c3ccc(-c4cnc([C@@H]5CCCN5C(=O)[C@@H](NC(=O)OC)C(C)C)[nH]4)cc3)cc2)[nH]1)C(C)C [Daclatasvir] | > 100 µM | 0.208 |
| O=c1c(-c2ccc(O)cc2)coc2cc(O[C@@H]3O[C@H](CO)[C@@H](O)[C@H](O)[C@H]3O)ccc12 [Daidzin] | > 100 µM | 0.169 |
| CC(C)(C)OC(=O)N[C@H]1CCCCC/C=C\[C@@H]2C[C@@]2(C(=O)NS(=O)(=O)C2CC2)NC(=O)[C@@H]2C[C@@H](OC(=O)N3Cc4cccc(F)c4C3)CN2C1=O [Danoprevir] | > 100 µM | 0.26 |
| COc1cc2cc(Oc3ccc4ccc(=O)oc4c3)c(=O)oc2cc1O [Daphnoretin] | > 100 µM | 0.178 |
| Cc1cc(C)c(Nc2ccnc(Nc3ccc(C#N)cc3)n2)c(C)c1 [Dapivirine] | > 100 µM | 0.836 |
| COc1c(-c2ccc3cc(NS(C)(=O)=O)ccc3c2)cc(-n2ccc(=O)[nH]c2=O)cc1C(C)(C)C [Dasabuvir] | > 100 µM | 0.608 |
| Cc1c(O)c(=O)ccn1C [Deferiprone] | > 100 µM | 0.256 |
| CC(=O)N(O)CCCCCNC(=O)CCC(=O)N(O)CCCCCNC(=O)CCC(=O)N(O)CCCCCN.CS(=O)(=O)O [Deferoxamine] | > 100 µM | 0.23 |
| CC(C)Nc1cccnc1N1CCN(C(=O)c2cc3cc(NS(C)(=O)=O)ccc3[nH]2)CC1.CS(=O)(=O)O [Delavirdine] | > 100 µM | 0.324 |
